System: iNOS mRNA
Assay: Suppression of LPS-induced iNOS mRNA expression in rat isolated aorta (Northern blot)
Type: cell-based
Details: LPS 300 ng/ml, 8 hours; compound 10, 30 and 100 μM; FIG. 1
Procedure: Rats were anesthetized with pentobarbital sodium (50 mg/kg) and the aorta was isolated, followed by removing endothelium from the aorta. After being incubated at 37° C. for 8 hours in a Krebs solution containing 300 ng/ml of LPS, the aorta was subjected to total RNA extraction with the aid of a trizol solution (GibcoBRL). After quantification by use of a UV spectrophotometer (Shimadzu, UV-1201), the total RNA obtained was electrophoresed on a formamide-formaldehyde agarose gel and transferred to a nylon membrane. Thereafter, the total RNA on the nylon membrane was hybridized with cDNA probes for iNOS to determine the expression level of iNOS mRNA, in which the cDNA of iNOS was labeled with ^32P-dCTP by a random-primer method. For quantification, an x-ray film was exposed to the radioactive irradiation from the nylon membrane and developed to compare the dot sizes of desired objects with those of GAPDH (glyceraldehyde-3-phosphate dehydrogenase).
When aortic preparations were incubated, in vitro, the blood vessel was cultured, in vitro, in the presence of LPS, iNOS mRNA was transcribed in a large amount. […]

## Oc1cc2c(cc1O)C(Cc1cccc3ccccc13)NCC2 (stereo not drawn) [Compound 1, 1-α-naphthylmethyl-6,7-dihydroxy-1,2,3,4-tetrahydroisoquinoline]
  LPS-induced iNOS mRNA expression in isolated rat aorta: inhibits the LPS-induced iNOS mRNA expression in a concentration-dependent manner

— US6562837B1, “Use of tetrahydroisoquinoline compounds for the treatment of septicemia” (Korea Institute of Science & Technology, priority 1998, dated 2003)
